Measurements published in patent publication US20040097583A1, “Use of inhibitors of the sodium/hydrogen exchanger for the treatment of thrombotic and inflammatory disorders” (priority 2002, published 2004).
Where “and” joins values, the source holds several entries; their conditions need not be identical. Equal entries are not always repeated. Entries after “also recorded” stand apart in the source; their conditions may differ.

Experiments:
[1] = system: human umbilical vein endothelial cells (HUVEC); assay: Measurement of the intracellular pH (pHi) during reperfusion simulation after acidosis, BCECF fluorescence; type: cell-based
Experimental: (§1) All the examples were carried out with human umbilical vein endothelial cells (HUVEC). These comprise primary cell cultures isolated from the umbilical vein.
(§2) For the following examples, the cells were cultivated either on gelatinized glass plates (measurement of the intracellular proton concentration) or on cell culture plates (12-well culture plates, Falcon, N.J., USA; measurement of vWF release) after the first passage.
To measure the intracellular proton concentration (pHi), the HUVECs were loaded with the pH-sensitive fluorescent dye, BCECF-AM (2′,7′-bis(carboxyethyl)-5(6)-carboxyfluorescein). A Deltascan spectrofluorometer (PTI, Hamburg) was employed for the subsequent fluorescence measurement. This measuring system consists essentially of a UV light source, a monochromator, a photon detector and the Felix and Oscar software packages (PTI, Hamburg) for controlling the system via a computer. After alternate excitation with the wavelengths 439.5 nm (pH-independent) and 490 nm (pH-sensitive), the ratio of the measured emissions of the BCECF (ratio) was reported and the pH was found after a calibration. The measuring cell is designed so that the parameters of temperature and carbon dioxide partial pressure in the system are controlled during continuous perfusion. For the reperfusion simulation, the experimental conditions were set at 37° C. and a carbon dioxide partial pressure of 5% or 10% by gassing the system and perfusate.
In the experiment, there was initially preincubation with sodium bicarbonate buffer pHex 6.4 for 60 minutes in order to simulate […] metabolic acidosis. The initiation perfusion was then changed to sodium bicarbonate buffer of pH 7.4 with 10 μM histamine as reperfusion simulation. These control experiments were compared with an experiment in which the NHE inhibitor cariporide was added in a concentration of 10 μM to the reperfusion buffer.

[2] = system: human umbilical vein endothelial cells (HUVEC); assay: Measurement of vWF release after reperfusion (ELISA of cell supernatant); type: cell-based
Experimental: as §1, §2
The measurements were carried out in a Heraeus Heracell incubator. This made it possible to […] the umbilical vein endothelial cells under controlled physiological conditions (temperature 37° C., relative humidity 100%, pCO2 constant at 5%), and to ensure rapid change of different cell culture media.
Said cells were initially incubated with acidotic medium (pH 6.4 composed of the ingredients: medium M199 w/Earle's & amino acids, w/L-glutamine, w/o NaHCO3, w/o Hepes+0.084 g NaHCO3/1) or pH standard medium (pH 7.4 composed of the ingredients: medium M199 w/Earle's & amino acids, w/L-glutamine, w/o NaHCO3, w/o Hepes+2.200 g NaHCO3/1), for one, three or 48 hours. Before starting the reperfusion, samples of supernatant were taken to determine the vWF concentration under acidotic conditions (vWFacidosis) and control conditions (vWFco). To simulate reperfusion, the medium was changed to one with a pH of 7.4 (ingredients: medium M199 w/Earle's & amino acids, w/L-glutamine, w/o NaHCO3, w/o Hepes+2.200 g NaHCO3/1+10 μM histamine) to which the NHE inhibitor cariporide was added in a concentration of 10 μM. Change to the same medium without corresponding addition of inhibitor served as control.
The samples taken from the supernatant were used to determine the vWF concentration. This was done by an ELISA method (enzyme-linked immuno sorbent assay) using specific antibodies. The vWF content of standard human plasma (Behring, Marburg) is calculated using an international standard (2nd International Standard 87/718, National Institute for Biological Standards and Control, London).

CC(C)c1ccc(C(=O)N=C(N)N)cc1S(C)(=O)=O [cariporide]
Rate of pH increase, Mean ± SEM ([1]; 10 μM cariporide in reperfusion buffer pH 7.4 with 10 μM histamine, after 60 minutes of acidosis (pHex 6.4), first 30 seconds after reperfusion): 0.27 ± 0.02 Δ pH / min
Rate of pH increase, individual experiments ([1]; 10 μM cariporide in reperfusion buffer pH 7.4 with 10 μM histamine, after 60 minutes of acidosis (pHex 6.4), first 30 seconds after reperfusion, listed as HOE): 0.30 Δ pH / min and 0.24 Δ pH / min (2×) and 0.23 Δ pH / min and 0.34 Δ pH / min
Reduction in the rate of increase in intracellular pH compared with the control (factor) ([1]; extracellular pH changed from 6.4 to 7.4, 10 μM cariporide): 3.6
Effect on vWF secretion of healthy, non-acidotic control cells (in words) ([2]; control cells incubated with cariporide (10 μM)): no increase or decrease in vWF secretion; also recorded: showed no effect
vWF secretion relative to control cells (vWFco = 100%), control cells incubated with cariporide (vWFco+HOE) ([2]; non-acidotic control cells, 10 μM cariporide, 10-minute reperfusion time with stimulation): 106 ± 3.0%
vWF concentration during reperfusion of preacidotic cells in the presence of cariporide (vWFHOE), relative to control (vWFco = 100%) ([2]; preacidotic cells (pH 6.4), 10 μM cariporide, 10-minute reperfusion time with stimulation, without cariporide 193 ± 8.0%): 139 ± 16%
Reduction of the increased vWF secretion during reperfusion ([2]; preacidotic cells, 10 μM cariporide): ~60%
